Reference: ChEMBL document CHEMBL4011618, “Discovery of Potent, Selective Stem Cell Factor Receptor/Platelet Derived Growth Factor Receptor Alpha (c-KIT/PDGFRα) Dual Inhibitor for the Treatment of Imatinib-Resistant Gastrointestinal Stromal Tumors (GISTs)” (J Med Chem, 2017)

Assays:
[1] = AUC (0 to infinity) in Sprague-Dawley rat at 100 mg/kg, ip up to 24 hrs post dose by LC/MS/MS analysis; assay type: ADME, organism-based; set-up: dose 100 mg/kg, time infinity, route intraperitoneal; conditions: in vivo
BaF3 [2] = assay: Antitumor activity against mouse BAF3 cells harboring TEL-cKIT-T670I mutant allografted in nu/nu mouse assessed as tumor growth inhibition at 100 mg/kg, ip administered daily for 11 days relative to control; assay type: functional; conditions: 264 h, read-out: TGI
[3] = Half life in rat liver microsomes at 1 uM in presence of NADPH by LC-MS/MS; assay type: ADME, microsome
[4] = MRT (0 to infinity) in Sprague-Dawley rat at 100 mg/kg, ip up to 24 hrs post dose by LC/MS/MS analysis; assay type: ADME, organism-based; conditions: in vivo
[5] = Antiproliferative activity against CHL cells assessed as cell growth inhibition after 72 hrs by cell titer-glo assay; assay type: cell-based, Cricetulus griseus; conditions: chinese hamster
[6] = test system: Mast/stem cell growth factor receptor Kit (Homo sapiens), P10721 [D816H]
Chain of Mast/stem cell growth factor receptor Kit (Homo sapiens), P10721 [D816H] (P10721 whole entry D816H): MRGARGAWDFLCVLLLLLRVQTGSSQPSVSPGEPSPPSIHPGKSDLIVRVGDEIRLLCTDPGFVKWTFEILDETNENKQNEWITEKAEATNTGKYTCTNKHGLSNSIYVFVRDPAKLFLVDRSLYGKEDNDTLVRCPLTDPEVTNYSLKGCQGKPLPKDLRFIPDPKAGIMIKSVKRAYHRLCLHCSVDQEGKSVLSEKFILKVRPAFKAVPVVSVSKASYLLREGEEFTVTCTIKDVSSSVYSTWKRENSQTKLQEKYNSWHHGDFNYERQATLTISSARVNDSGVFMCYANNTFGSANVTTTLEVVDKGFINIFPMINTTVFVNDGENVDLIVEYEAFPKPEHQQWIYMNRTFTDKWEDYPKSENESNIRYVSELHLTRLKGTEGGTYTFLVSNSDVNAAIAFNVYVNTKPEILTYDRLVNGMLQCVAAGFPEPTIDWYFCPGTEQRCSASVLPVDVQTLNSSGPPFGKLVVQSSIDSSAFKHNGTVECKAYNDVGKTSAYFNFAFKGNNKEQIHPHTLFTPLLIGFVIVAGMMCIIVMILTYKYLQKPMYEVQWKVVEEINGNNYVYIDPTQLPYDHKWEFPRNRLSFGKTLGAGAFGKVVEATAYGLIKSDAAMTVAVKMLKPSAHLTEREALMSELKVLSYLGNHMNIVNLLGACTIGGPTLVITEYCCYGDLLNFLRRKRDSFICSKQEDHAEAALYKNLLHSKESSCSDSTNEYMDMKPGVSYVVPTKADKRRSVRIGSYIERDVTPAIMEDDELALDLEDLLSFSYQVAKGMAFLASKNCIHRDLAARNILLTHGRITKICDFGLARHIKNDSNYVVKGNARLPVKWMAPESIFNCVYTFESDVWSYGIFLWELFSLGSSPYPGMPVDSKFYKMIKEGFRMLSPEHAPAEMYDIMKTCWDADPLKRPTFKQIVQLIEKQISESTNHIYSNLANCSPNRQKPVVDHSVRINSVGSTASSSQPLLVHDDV
Description: Inhibition of TEL-fused cKIT D816H mutant (unknown origin) expressed in mouse BAF3 cells assessed as cell growth inhibition after 72 hrs by cell titer-glo assay

Mus musculus [7] = assay: Toxicity in nu/nu mouse allografted with mouse BAF3 cells harboring TEL-cKIT-T670I mutant assessed as change in body weight at 25 to 100 mg/kg, ip administered daily for 11 days relative to control; assay type: organism-based; conditions: in vivo, 264 h
[8] = biological target: Receptor-type tyrosine-protein kinase FLT3 (Homo sapiens, UniProt P36888); assay: Inhibition of human His-tagged FLT3 (564 to 958 residues) expressed in baculovirus by ELISA
Chain of Receptor-type tyrosine-protein kinase FLT3 (P36888 whole entry, the tested form may be a part): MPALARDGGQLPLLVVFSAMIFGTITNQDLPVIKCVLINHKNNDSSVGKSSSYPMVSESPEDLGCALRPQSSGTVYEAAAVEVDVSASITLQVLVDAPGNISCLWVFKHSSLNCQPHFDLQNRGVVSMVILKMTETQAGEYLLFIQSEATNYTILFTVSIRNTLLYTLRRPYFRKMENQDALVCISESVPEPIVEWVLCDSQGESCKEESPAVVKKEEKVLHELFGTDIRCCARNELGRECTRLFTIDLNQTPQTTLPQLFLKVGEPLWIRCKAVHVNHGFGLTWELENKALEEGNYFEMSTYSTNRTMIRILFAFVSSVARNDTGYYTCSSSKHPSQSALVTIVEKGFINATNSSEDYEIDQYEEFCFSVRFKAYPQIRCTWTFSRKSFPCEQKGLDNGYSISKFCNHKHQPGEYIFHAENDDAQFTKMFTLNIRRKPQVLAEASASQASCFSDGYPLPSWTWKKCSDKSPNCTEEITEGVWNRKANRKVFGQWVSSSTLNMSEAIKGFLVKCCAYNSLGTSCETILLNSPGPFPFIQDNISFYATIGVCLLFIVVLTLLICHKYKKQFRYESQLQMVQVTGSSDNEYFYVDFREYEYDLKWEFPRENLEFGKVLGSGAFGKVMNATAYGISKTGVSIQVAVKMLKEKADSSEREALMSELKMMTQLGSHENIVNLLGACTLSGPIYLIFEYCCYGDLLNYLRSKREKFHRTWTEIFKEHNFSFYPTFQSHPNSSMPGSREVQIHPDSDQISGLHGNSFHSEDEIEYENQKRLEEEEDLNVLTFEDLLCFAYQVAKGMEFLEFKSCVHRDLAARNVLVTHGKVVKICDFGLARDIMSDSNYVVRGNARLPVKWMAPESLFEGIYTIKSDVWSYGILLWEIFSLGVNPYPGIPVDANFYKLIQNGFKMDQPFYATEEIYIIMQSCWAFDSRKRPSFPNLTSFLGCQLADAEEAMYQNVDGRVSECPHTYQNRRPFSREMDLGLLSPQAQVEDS

[9] = test system: Mast/stem cell growth factor receptor Kit (Homo sapiens), P10721 [V559D,T670I]
Chain of Mast/stem cell growth factor receptor Kit (Homo sapiens), P10721 [V559D,T670I] (P10721 whole entry V559D/T670I): as the sequence (P10721 whole entry D816H) above, with V559D, T670I, H816D counted along it

[10] = test system: Platelet-derived growth factor receptor alpha (Homo sapiens), P16234 [T674I]
Description: Inhibition of TEL-fused PDGFRalpha T674I mutant (unknown origin) expressed in mouse BAF3 cells assessed as cell growth inhibition after 72 hrs by cell titer-glo assay

[11] = AUC (0 to infinity) in Sprague-Dawley rat at 25 mg/kg, ip up to 24 hrs post dose by LC/MS/MS analysis; assay type: ADME, organism-based; set-up: dose 25 mg/kg, time infinity, route intraperitoneal; conditions: in vivo
[12] = test system: Mast/stem cell growth factor receptor Kit (Homo sapiens), P10721 [D816V]
Description: Inhibition of TEL-fused cKIT D816V mutant (unknown origin) expressed in mouse BAF3 cells assessed as cell growth inhibition after 72 hrs by cell titer-glo assay

[13] = Apparent clearance in Sprague-Dawley rat at 2 mg/kg, iv up to 24 hrs post dose by LC/MS/MS analysis; assay type: ADME, organism-based; conditions: in vivo, read-out: CL(app) (converted)
[14] = Tmax in Sprague-Dawley rat at 25 mg/kg, ip up to 24 hrs post dose by LC/MS/MS analysis; assay type: ADME, organism-based; conditions: in vivo
GISTT1 [15] = assay: Antitumor activity against human GISTT1 cells xenografted in nu/nu mouse assessed as tumor growth inhibition at 25 mg/kg, ip administered daily for 28 days relative to control; assay type: functional; conditions: 672 h, read-out: TGI
[16] = biological target: T1, Mast/stem cell growth factor receptor Kit (Homo sapiens, UniProt P10721)
T1 sequence (P10721 whole entry, the tested form may be a part): as the sequence (P10721 whole entry D816H) above, with H816D counted along it
Description: Inhibition of TEL-fused cKIT (unknown origin) expressed in mouse BAF3 cells assessed as cell growth inhibition after 72 hrs by cell titer-glo assay

[17] = biological target: Vascular endothelial growth factor receptor 3 (Homo sapiens, UniProt P35916); assay: Inhibition of human GST-tagged FLT4 (800 to 1297 residues) expressed in baculovirus by ELISA
[18] = test system: Mast/stem cell growth factor receptor Kit (Homo sapiens), P10721 [C674S]
Description: Inhibition of TEL-fused cKIT C674S mutant (unknown origin) expressed in mouse BAF3 cells assessed as cell growth inhibition after 72 hrs by cell titer-glo assay

[19] = Half life in Sprague-Dawley rat at 25 mg/kg, ip up to 24 hrs post dose by LC/MS/MS analysis; assay type: ADME, organism-based; conditions: in vivo
[20] = biological target: Platelet-derived growth factor receptor beta (Homo sapiens, UniProt P09619); assay: Inhibition of human His-tagged PDGFRbeta (558 to 1106 residues) expressed in baculovirus by ELISA
[21] = Cmax in Sprague-Dawley rat at 100 mg/kg, ip up to 24 hrs post dose by LC/MS/MS analysis; assay type: ADME, organism-based; set-up: dose 100 mg/kg, route intraperitoneal; conditions: in vivo
[22] = AUC (0 to infinity) in Sprague-Dawley rat at 2 mg/kg, iv up to 24 hrs post dose by LC/MS/MS analysis; assay type: ADME, organism-based; set-up: dose 2 mg/kg, route intravenous, time infinity; conditions: in vivo
Mus musculus [23] = assay: Toxicity in nu/nu mouse xenografted with human GISTT1 cells assessed as mortality at 25 to 100 mg/kg, ip administered daily for 28 days measured during compound dosing; assay type: organism-based; conditions: in vivo, 672 h
[24] = test system: Mast/stem cell growth factor receptor Kit (Homo sapiens), P10721 [V559D,V654A]
Chain of Mast/stem cell growth factor receptor Kit (Homo sapiens), P10721 [V559D,V654A] (P10721 whole entry V559D/V654A): as the sequence (P10721 whole entry D816H) above, with V559D, V654A, H816D counted along it

[25] = test system: Mast/stem cell growth factor receptor Kit (Homo sapiens), P10721 [N822K]
Description: Inhibition of TEL-fused cKIT N822K mutant (unknown origin) expressed in mouse BAF3 cells assessed as cell growth inhibition after 72 hrs by cell titer-glo assay

[26] = test system: Mast/stem cell growth factor receptor Kit (Homo sapiens), P10721 [L576P]
Description: Inhibition of TEL-fused cKIT L576P mutant (unknown origin) expressed in mouse BAF3 cells assessed as cell growth inhibition after 72 hrs by cell titer-glo assay

[27] = Antiproliferative activity against CHO cells assessed as cell growth inhibition after 72 hrs by cell titer-glo assay; assay type: cell-based, Cricetulus griseus; conditions: chinese hamster
[28] = Antiproliferative activity against mouse BAF3 cells assessed as cell growth inhibition after 72 hrs by cell titer-glo assay; assay type: cell-based
GISTT1 [29] = assay: Antitumor activity against human GISTT1 cells xenografted in nu/nu mouse assessed as tumor growth inhibition at 100 mg/kg, ip administered daily for 28 days relative to control; assay type: functional; conditions: 672 h, read-out: TGI
[30] = biological target: T1, Mast/stem cell growth factor receptor Kit; remark: listed apart in the source
Description: Inhibition of cKIT (unknown origin) using FAM-labeled peptide as substrate preincubated for 10 mins followed by substrate addition in presence of ATP by mobility shift assay

[31] = biological target: Platelet-derived growth factor receptor alpha (Homo sapiens, UniProt P16234)
Description: Inhibition of TEL-fused PDGFRalpha (unknown origin) expressed in mouse BAF3 cells assessed as cell growth inhibition after 72 hrs by cell titer-glo assay

[32] = Cmax in Sprague-Dawley rat at 25 mg/kg, ip up to 24 hrs post dose by LC/MS/MS analysis; assay type: ADME, organism-based; set-up: dose 25 mg/kg, route intraperitoneal; conditions: in vivo
MEG-01 = assay: Antiproliferative activity against human MEG01 cells assessed as cell growth inhibition after 72 hrs by cell titer-glo assay; assay type: functional; conditions: MEG-01, 72 h
BaF3 [33] = assay: Antitumor activity against mouse BAF3 cells harboring TEL-cKIT-T670I mutant allografted in nu/nu mouse assessed as tumor growth inhibition at 25 mg/kg, ip administered daily for 11 days relative to control; assay type: functional; conditions: 264 h, read-out: TGI
GISTT1 [34] = assay: Antiproliferative activity against human GISTT1 cells assessed as cell growth inhibition after 72 hrs by cell titer-glo assay; assay type: functional; conditions: GISTT1, 72 h
[35] = AUC (0 to t) in Sprague-Dawley rat at 2 mg/kg, iv up to 24 hrs post dose by LC/MS/MS analysis; assay type: ADME, organism-based; set-up: dose 2 mg/kg, time < 24 hr, route intravenous; conditions: in vivo
[36] = biological target: Proto-oncogene tyrosine-protein kinase receptor Ret (Homo sapiens, UniProt P07949); assay: Inhibition of human GST-tagged RET (658 to 1114 residues) expressed in baculovirus by ELISA
[37] = biological target: Voltage-gated inwardly rectifying potassium channel KCNH2 (Homo sapiens, UniProt Q12809); assay: Inhibition of human ERG expressed in CHO cells by whole cell patch clamp assay; assay type: cell-based
[38] = Antiproliferative activity against human GIST48B cells assessed as cell growth inhibition after 72 hrs by cell titer-glo assay; assay type: functional
[39] = MRT (0 to t) in Sprague-Dawley rat at 25 mg/kg, ip up to 24 hrs post dose by LC/MS/MS analysis; assay type: ADME, organism-based; conditions: in vivo

Cc1cc(NC(=O)Nc2ccc(-c3ccnc4[nH]nc(C)c34)cc2)ccc1N1CCOCC1
AUC(0-inf) [1]: 5390 ng·h/mL
inhibition in vivo at 100 mg/kg (BaF3 [2]): 41.9%
half-life at 1 µM [3]: 0.779 h
MRT inf [4]: 14.8 h
GI50 at 72 h [5]: 7040 nM
GI50 [6]: 134 nM
Activity (Mus musculus [7]): Non-Toxic
IC50 [8]: 2 nM
GI50 [9]: 36.4 nM
GI50 [10]: 135 nM
AUC(0-inf) [11]: 713 ng·h/mL
GI50 [12]: > 10000 nM
clearance [13]: 15.8 mL/min/kg
Tmax [14]: 4 h
inhibition in vivo at 25 mg/kg (GISTT1 [15]): 20.2%
GI50 [16]: 18.1 nM
IC50 [17]: 72 nM
GI50 [18]: 10.5 nM
half-life [19]: 5.09 h
IC50 [20]: < 1 nM
Cmax [21]: 656 ng/mL
AUC(0-inf) [22]: 2250 ng·h/mL
Activity (Mus musculus [23]): Non-Toxic
GI50 [24]: 330 nM
GI50 [25]: 11.1 nM
GI50 [26]: 10.6 nM
GI50 at 72 h [27]: > 10000 nM
GI50 at 72 h [28]: 4030 nM
inhibition in vivo at 100 mg/kg (GISTT1 [29]): 81.5%
IC50 [30]: 2.4 nM
GI50 [31]: 10.4 nM
Cmax [32]: 117 ng/mL
GI50 (MEG-01): 9090 nM
inhibition in vivo at 25 mg/kg (BaF3 [33]): 16.8%
GI50 (GISTT1 [34]): < 3 nM
AUC(0-t) at 24 h [35]: 2240 ng·h/mL
IC50 [36]: > 1000 nM
IC50 [37]: > 40000 nM
GI50 [38]: > 10000 nM
MRT last at 24 h [39]: 5.67 h
